# Experimental data taken from patent US10047105B2, “Gyrase inhibitors” (Merck Sharp & Dohme Corp., priority 2009, dated 2018).
# Tests used:
# Type in all cases: cell-based
# S. aureus ATCC 13709 = assay: MIC, antibacterial potency, S. aureus; conditions: S. aureus (SA); in µg/mL
# E. coli 8 ATCC 25922 = assay: MIC, E. coli 8 (wt); conditions: E. coli 8 (EC8)
# S. pneumoniae ATCC 51916 = assay: MIC, S. pneumoniae; conditions: S. pneumoniae (Spn52); in µg/mL
"MIC, SA (S. aureus ATCC 13709)",MIC EC8 (E. coli 8 ATCC 25922) [µg/mL],MIC Spn52 (S. pneumoniae ATCC 51916),Compound
>64,> 64,>64,"CCc1[nH]c2nc(Sc3cnc4[nH][nH]c(=O)c4c3)nc(N3CC[C@@H](N)C3)c2c1Cl [701,094]"
<=0.5,> 64,2,"CCc1[nH]c2nc(Oc3ccc[n+]([O-])c3)nc(Oc3ccc[n+]([O-])c3)c2c1Br [701,092]"
8,> 64,8,"CCc1[nH]c2nc(Sc3ccc4oc(C)nc4c3)nc(N3CC[C@@H](N)C3)c2c1Cl [701,039]"
32,> 64,16,"CCc1[nH]c2nc(Sc3cnc4nccnc4c3)nc(N3C[C@@H](O)[C@@H](N)C3)c2c1Cl [701,119]"
4,> 64,16,"CCc1[nH]c2nc(Oc3cncc(C(N)=O)c3)ncc2c1Cl [701,265]"
<=0.5,16,2,"CCc1[nH]c2nc(Sc3cnc4ccc[n+]([O-])c4c3)nc(N3CCC4CNC4C3)c2c1Cl (stereo not drawn) [701,116]"
8,16,32,"CCc1[nH]c2nc(Sc3cnc4ccc[n+]([O-])c4c3)nc(N3CC4(CNC4)C3)c2c1Cl [701,038]"
4,> 64,32,"CCc1[nH]c2nc(Oc3ccc4nccnc4c3)ncc2c1Cl [701,238]"
<=0.5,16,<=0.5,"CCc1[nH]c2nc(Oc3cncnc3)nc(Oc3cc(Cl)cc(N4CC(N)C4)c3)c2c1Br [701,273]"
<=0.5,> 64,1,"CCc1[nH]c2nc(Sc3cnc4cccnc4c3)nc(N3CCC(CNS(=O)(=O)c4ccccc4)C3)c2c1Cl (stereo not drawn) [701,045]"
>64,> 64,>64,"CCc1[nH]c2nc(Oc3ccc4cccnc4c3)nc(N3CC4C(N)C4C3)c2c1Cl (stereo not drawn) [701,055]"
>64,> 64,>64,"CCc1[nH]c2nc(Oc3cc4ncn(C)c4[n+]([O-])c3)nc(Oc3cnc4c(c3)ncn4C)c2c1Cl [701,067]"
<=0.5,32,4,"CCc1[nH]c2nc(Sc3ccc4c(OC)cc[n+]([O-])c4c3)nc(N3CC[C@@H](N)C3)c2c1Cl [701,040]"
2,4,2,"NC1C2CN(c3nc(Sc4cnc5cccnc5c4)nc4[nH]c(C5CC5)c(Cl)c34)CC12 (stereo not drawn) [701,063]"
<=0.5,> 32,<=0.5,"CCc1[nH]c2nc(Oc3ccc4c(c3)ncc[n+]4[O-])nc(Oc3ccc4nccnc4c3)c2c1Cl [701,061]"
<=0.5,> 64,1,"CCc1[nH]c2nc(Oc3cnc(C)nc3)nc(Oc3cc(C#N)ccc3F)c2c1Br [701,288]"
1.,> 64,8,"CCc1[nH]c2nc(Oc3cncnc3)nc(Oc3ccc4nccnc4c3)c2c1C [701,233]"
2,32,2,"CCc1[nH]c2nc(Oc3cnc(N)nc3)nc(N3CC4C(N)C4C3)c2c1Cl (stereo not drawn) [701,122]"
16,> 64,64,"CCc1[nH]c2nc(Sc3cncc(S(=O)(=O)N(C)C)c3)nc(N3CC4C(N)C4C3)c2c1C (stereo not drawn) [701,183]"

# The next lines start with the molecule.
Compound,"MIC, SA (S. aureus ATCC 13709)",MIC EC8 (E. coli 8 ATCC 25922) [µg/mL],MIC Spn52 (S. pneumoniae ATCC 51916)
"CCc1[nH]c2nc(Sc3cnc4cccnc4c3)nc(N3C[C@@H]4NCCO[C@@H]4C3)c2c1Cl [700,959]",2,> 64,2
"CCc1[nH]c2nc(Oc3cncc(C#N)c3)nc(Oc3cc(C#N)cc(OC)c3)c2c1Br [700,933]",2,> 64,4
"CCc1[nH]c2nc(Oc3cncc(C#N)c3)nc(N3CCOCC3)c2c1Cl [701,031]",<=0.5,> 64,2
"CCOC(=O)/C=C/c1ccc(Sc2nc(N3CC[C@@H](N)C3)c3c(Cl)c(CC)[nH]c3n2)cc1F [700,925]",4,> 64,32
"CCc1[nH]c2nc(Sc3cnc4cccnc4c3)nc(N3C[C@@H]4NCCO[C@H]4C3)c2c1Cl [700,958]",2,> 32,4
"CCc1[nH]c2nc(Sc3ccc4nc(C)nc(N5CC6CNC6C5)c4c3)nc(N3CC[C@@H](N)C3)c2c1Cl (stereo partly drawn) [700,916]",64,> 64,>64
"CCc1[nH]c2nc(Oc3cncnc3)nc(N3CC4C(N)C4C3)c2c1Cl (stereo not drawn) [700,911]",1,> 32,2
"CCc1[nH]c2nc(Oc3cnc4c(c3)ncn4C)nc(Oc3cncc(C#N)c3)c2c1Br [700,996]",<=0.5,> 64,<=0.5
"CCc1[nH]c2nc(Sc3ccc4nc(N5CC(N)C5)cnc4c3)nc(N3CC[C@@H](N)C3)c2c1Cl [701,014]",4,32,8
"CCc1[nH]c2nc(Sc3ccc4c(c3)C(=O)NC4)nc(N3CC4C(C3)C4(N)C(N)=O)c2c1Cl (stereo not drawn) [700,973]",<=0.5,> 64,2
"CCc1[nH]c2nc(Oc3cncc(C#N)c3)nc(N3CC[C@@H](NC(C)=O)C3)c2c1Cl [700,999]",2,> 64,2
"CCc1[nH]c2nc(Sc3cnc4nccnc4c3)nc(N3CC4NC4C3)c2c1Cl (stereo not drawn) [701,118]",4,64,2
"CCOC(=O)NCC1CCN(c2nc(Sc3cnc4cccnc4c3)nc3[nH]c(CC)c(Cl)c23)C1 (stereo not drawn) [701,035]",<=0.5,> 64,<=0.5
"CCc1[nH]c2nc(Oc3ccc4nccnc4c3)nc(C(C)=O)c2c1Cl [700,961]",1,> 64,1
"CCc1[nH]c2nc(Sc3cnc4ccc[n+]([O-])c4c3)nc(N3CC4CCNC4C3)c2c1Cl (stereo not drawn) [701,026]",<=0.5,8,1
"CCc1[nH]c2nc(Sc3ccc4c(N5CCC(N)CC5)nc(C)nc4c3)nc(N3CC[C@@H](N)C3)c2c1Cl [700,983]",32,32,32
"CCc1[nH]c2nc(Sc3cnc4cccnc4c3)nc(N3C[C@H](N)[C@H](C(=O)NCc4cccnc4)C3)c2c1Cl [701,020]",4,> 64,2
"CCc1[nH]c2nc(Sc3cnc4c(=N)n(CCCN(C)C)c(C)nc4c3)nc(N3CC[C@@H](N)C3)c2c1Cl [700,923]",16,64,8
"CCc1[nH]c2nc(Sc3cnc4cccnc4c3)nc(N3C[C@@H](N)[C@@H](C(=O)N[C@@H](CO)c4ccccc4)C3)c2c1Cl [701,022]",4,> 64,2
"CCc1[nH]c2nc(Sc3cnc4ccc[n+]([O-])c4c3)nc(N3CC4CNC4C3)c2c1Cl (stereo not drawn) [701,025]",<=0.5,16,2
